# Article PMC6934184, “Selective DNA-PKcs inhibition extends the therapeutic index of localized radiotherapy and chemotherapy” (The Journal of Clinical Investigation, 2019)
# Target: T1, PIK3C2B (PI3K-C2 beta) (Homo sapiens, UniProt O00750)
# T1 construct: purchased Thermo Fisher Scientific (Life Technologies) SelectScreen
# Experiment: SelectScreen Adapta
# Format: biochemical
# Details: ATP 10 µM
# Experimental: The in vitro kinase selectivity of NU5455 was determined using the SelectScreen Broad Assay Panel (Thermo Fisher Scientific) involving activity and binding assays (Supplemental Table 1). […] Class IA PI3Ks were measured using the p85α subunit.
# Kinase [ATP] % Assay Kinase [ATP] % Assay Kinase [ATP] % Assay Kinase [ATP] % Assay
# DNA-PK Km app 98.3 Z LATS2 n/a 4.7 L KIT D820E n/a 1.3 L GSK3B (GSK3 beta) Km app -2.5 Z
# PIK3C3 (hVPS34) Km app 85.9 A PRKCZ (PKC zeta) Km app 4.7 Z GRK1 n/a 1.3 L BMPR2 n/a -2.5 L
# PIK3C2B (PI3K-C2 beta) 10 28.9 A FGFR1 Km app 4.7 Z BRSK2 n/a 1.2 L CDC42 BPB (MRCKB) Km app -2.5 Z
# SNF1LK2 Km app 26.6 Z MINK1 Km app 4.6 Z NUAK1 (ARK5) Km app 1.2 A AMPK (A2/B2/G2) n/a -2.6 L
# HCK Km app 18.0 Z CSF1R (FMS) Km app 4.3 Z CDK9/cyclin K n/a 1.0 L PRKG1 Km app -2.7 Z
# NEK2 Km app 17.8 Z CSNK1G3 (CK1 gamma 3) Km app 4.2 Z NUAK2 n/a 1.0 L KIT T670E n/a -2.8 L
# ALK Km app 17.3 Z STK32C (YANK3) n/a 4.2 L CDK2/cyclin O n/a 0.9 L ERBB4 (HER4) Km app -2.8 Z
# FGFR3 K650M n/a 16.5 L STK22D (TSSK1) Km app 4.2 Z CAMKK2 (CaMKK beta) n/a 0.9 L PLK4 n/a -2.8 L
# SIK3 n/a 16.1 L TAOK3 (JIK) n/a 4.2 L FGFR3 Km app 0.9 Z GRK7 Km app -3.0 Z
# LYN A Km app 15.2 Z RPS6KA4 (MSK2) Km app 4.2 Z ULK2 n/a 0.9 L MAPKAPK2 Km app -3.1 Z
# BMPR1B (ALK6) n/a 14.5 L PTK2B (FAK2) Km app 4.2 Z KIT D816V n/a 0.9 L FGFR4 Km app -3.1 Z
# INSRR (IRR) Km app 14.1 Z CLK2 Km app 4.1 Z CAMK1 (CaMK1) 10 0.8 A CASK n/a -3.1 L
# PLK2 Km app 14.1 Z STK24 (MST3) Km app 4.1 Z PTK6 (Brk) Km app 0.7 Z GRK5 Km app -3.2 Z
# PRKACA (PKA) Km app 14.0 Z CAMK1D (CaMKI delta) Km app 4.1 Z CAMK2B (CaMKII beta) Km app 0.7 Z EGFR (ErbB1) T790M Km app -3.3 Z
# EIF2AK2 (PKR) n/a 13.3 L INSR Km app 4.1 Z ACVR1 (ALK2) n/a 0.7 L PAK4 Km app -3.3 Z
# PRKX Km app 12.5 Z IRAK1 Km app 4.0 A ABL1 H396P n/a 0.6 L DAPK3 (ZIPK) Km app -3.4 Z
# FGR Km app 12.1 Z SRC N1 Km app 3.9 Z MERTK (cMER) A708S n/a 0.6 L RET M918T n/a -3.5 L
# CLK1 Km app 11.7 Z SRPK2 Km app 3.9 Z MAPKAPK5 (PRAK) Km app 0.6 Z PRKCQ (PKC theta) Km app -3.7 Z
# MARK3 Km app 11.4 Z RPS6KA6 (RSK4) Km app 3.8 Z AKT1 (PKB alpha) Km app 0.5 Z CAMKK1 (CAMKKA) n/a -3.8 L
# PDGFRB (PDGFR beta) Km app 11.0 Z GRK6 Km app 3.7 Z NTRK3 (TRKC) Km app 0.4 Z FLT3 D835Y Km app -3.9 Z
# PRKCN (PKD3) Km app 10.7 Z PKN1 (PRK1) Km app 3.6 Z ZAP70 Km app 0.3 Z ROCK2 Km app -4.1 Z
# STK16 (PKL12) n/a 10.5 L MAP3K8 (COT) 100 3.5 Z CSNK1A1 (CK1 alpha 1) Km app 0.3 Z CHUK (IKK alpha) Km app -4.2 A
# FES (FPS) Km app 10.4 Z FLT4 (VEGFR3) Km app 3.5 Z MYLK (MLCK) n/a 0.2 L AXL Km app -4.2 Z
# ABL1 Km app 10.4 Z GRK4 Km app 3.5 Z MKNK2 (MNK2) n/a 0.2 L PIM2 Km app -4.3 Z
# MUSK Km app 10.3 Z FRK (PTK5) Km app 3.4 Z AMPK (A1/B1/G3) n/a 0.2 L PAK1 Km app -4.4 Z
# MAPK1 (ERK2) Km app 10.1 Z FYN A n/a 3.3 L MAP3K2 (MEKK2) n/a 0.1 L BMPR1A (ALK3) n/a -4.4 L
# BRAF 100 9.9 Z CDK1/cyclin A2 n/a 3.3 L CDK8/cyclin C n/a 0.1 L STK4 (MST1) Km app -4.4 Z
# IGF1R Km app 9.7 Z KIT V559D T670I n/a 3.1 L MARK2 Km app 0.1 Z PRKCH (PKC eta) Km app -4.6 Z
# MAPK14 (p38 alpha) Km app 9.7 Z SPHK2 10 3.1 A ICK n/a 0.0 L SGKL (SGK3) Km app -4.6 Z
# LCK Km app 9.6 Z FGFR3 G697C n/a 3.1 L FGFR2 Km app 0.0 Z PI4KB (PI4K beta) Km app -4.7 A
# MAPK11 (p38 beta) Km app 9.5 Z RIPK2 n/a 3.1 L AKT2 (PKB beta) Km app 0.0 Z PRKCE (PKC epsilon) Km app -4.9 Z
# SRC Km app 9.5 Z PAK6 Km app 3.0 Z EPHB2 Km app -0.1 Z PHKG1 Km app -5.0 Z
# CHEK1 (CHK1) Km app 9.3 Z LYN B Km app 3.0 Z TGFBR2 n/a -0.1 L PDGFRA D842V Km app -5.0 Z
# CAMK2D (CaMKII delta) Km app 9.3 Z DAPK2 n/a 2.9 L TEK (Tie2) Km app -0.1 Z PRKG2 (PKG2) Km app -5.1 Z
# PLK1 Km app 9.2 Z EPHA4 Km app 2.9 Z AURKA (Aurora A) Km app -0.1 Z TYRO3 (RSE) Km app -5.1 Z
# RET Y791F Km app 9.2 Z PIK3CG (p110 gamma) Km app 2.9 A KIT D816H n/a -0.2 L TAOK2 (TAO1) Km app -5.1 Z
# FLT3 Km app 9.1 Z HIPK1 (Myak) Km app 2.8 Z KIT N822K n/a -0.2 L EPHB4 Km app -5.3 Z
# MAPK10 (JNK3) 100 9.0 Z ADRBK2 (GRK3) Km app 2.8 Z PRKACG (PRKAC gamma) n/a -0.2 L AURKC (Aurora C) Km app -5.4 Z
# CSNK2A2 (CK2 alpha 2) Km app 8.7 Z STK17B (DRAK2) n/a 2.7 L TEK (TIE2) Y1108F n/a -0.3 L JAK1 Km app -5.7 Z […]
# T1 sequence (O00750 whole entry): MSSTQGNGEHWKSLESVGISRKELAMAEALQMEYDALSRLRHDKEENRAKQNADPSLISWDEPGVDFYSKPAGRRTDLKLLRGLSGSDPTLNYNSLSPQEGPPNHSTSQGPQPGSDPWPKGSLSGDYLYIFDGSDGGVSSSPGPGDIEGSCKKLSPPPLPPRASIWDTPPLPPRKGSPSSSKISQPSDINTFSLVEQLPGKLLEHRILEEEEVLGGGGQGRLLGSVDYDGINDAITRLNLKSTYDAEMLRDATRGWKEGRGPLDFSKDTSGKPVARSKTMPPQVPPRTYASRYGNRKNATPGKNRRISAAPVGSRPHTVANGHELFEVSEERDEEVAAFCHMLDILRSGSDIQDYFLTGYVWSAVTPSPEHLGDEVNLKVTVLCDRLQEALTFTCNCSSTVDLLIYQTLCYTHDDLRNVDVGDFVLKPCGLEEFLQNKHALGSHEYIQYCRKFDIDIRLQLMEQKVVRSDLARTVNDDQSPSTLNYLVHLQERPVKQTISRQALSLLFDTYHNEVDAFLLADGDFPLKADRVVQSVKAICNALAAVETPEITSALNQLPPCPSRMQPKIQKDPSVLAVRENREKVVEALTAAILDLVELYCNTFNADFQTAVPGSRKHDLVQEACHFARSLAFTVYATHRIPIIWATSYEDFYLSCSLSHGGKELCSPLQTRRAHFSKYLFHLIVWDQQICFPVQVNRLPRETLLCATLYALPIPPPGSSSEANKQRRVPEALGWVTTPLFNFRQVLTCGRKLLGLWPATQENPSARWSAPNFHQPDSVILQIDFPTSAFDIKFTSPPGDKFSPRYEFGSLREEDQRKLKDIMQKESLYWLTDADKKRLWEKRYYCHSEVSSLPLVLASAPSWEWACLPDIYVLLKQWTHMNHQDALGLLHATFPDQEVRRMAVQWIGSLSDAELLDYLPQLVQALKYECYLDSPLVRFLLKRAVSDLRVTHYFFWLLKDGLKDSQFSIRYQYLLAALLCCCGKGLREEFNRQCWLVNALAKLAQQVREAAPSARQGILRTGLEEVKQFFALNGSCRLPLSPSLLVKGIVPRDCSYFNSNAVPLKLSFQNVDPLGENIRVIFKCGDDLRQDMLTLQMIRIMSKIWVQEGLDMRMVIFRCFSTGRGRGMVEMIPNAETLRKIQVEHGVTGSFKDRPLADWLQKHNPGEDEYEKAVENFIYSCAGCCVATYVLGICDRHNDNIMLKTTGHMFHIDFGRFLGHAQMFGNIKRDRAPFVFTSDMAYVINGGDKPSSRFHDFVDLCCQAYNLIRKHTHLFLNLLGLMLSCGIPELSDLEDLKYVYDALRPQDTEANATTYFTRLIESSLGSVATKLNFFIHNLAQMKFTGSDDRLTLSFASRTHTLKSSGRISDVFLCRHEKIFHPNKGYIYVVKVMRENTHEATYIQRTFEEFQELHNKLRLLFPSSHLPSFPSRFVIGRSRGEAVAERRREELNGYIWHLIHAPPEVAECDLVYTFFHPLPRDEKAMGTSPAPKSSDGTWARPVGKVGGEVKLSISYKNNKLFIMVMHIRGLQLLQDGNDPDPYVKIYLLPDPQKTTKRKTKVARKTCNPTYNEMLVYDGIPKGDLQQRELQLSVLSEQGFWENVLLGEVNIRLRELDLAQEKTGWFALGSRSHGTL
smiles,measurement,value
CN(C(=O)CN1CCOCC1)c1ccc2sc3c(-c4cccc5c(=O)cc(N6CC7CCC(C6)O7)oc45)cccc3c2c1 [NU5455],inhibition at 1 µM,28.9%
